The source of these data is BindingDB's records for doi:10.1021/cb400100g (University of Massachusetts Medical School, 2013).

A word on the Ki: it is a measure of affinity in units of concentration, obtained from inhibition or displacement. A higher Ki goes with lower affinity.

The target of the assay is Genome polyprotein (Hepatitis C virus genotype 1a (isolate H77), UniProt P27958). In words: Enzyme Inhibition Assay. As for the experimental part: NS3/4A protease was preincubated with increasing concentration of drugs in protease reaction buffer for 1 hour. Inhibition assays were performed in a reaction volume of 60μL. The reaction was initiated by the rapid injection of 5μL of HCV NS3/4A protease substrate to a final concentration of 200nM.
Chain of Genome polyprotein (P27958 1027-1657 limits assumed): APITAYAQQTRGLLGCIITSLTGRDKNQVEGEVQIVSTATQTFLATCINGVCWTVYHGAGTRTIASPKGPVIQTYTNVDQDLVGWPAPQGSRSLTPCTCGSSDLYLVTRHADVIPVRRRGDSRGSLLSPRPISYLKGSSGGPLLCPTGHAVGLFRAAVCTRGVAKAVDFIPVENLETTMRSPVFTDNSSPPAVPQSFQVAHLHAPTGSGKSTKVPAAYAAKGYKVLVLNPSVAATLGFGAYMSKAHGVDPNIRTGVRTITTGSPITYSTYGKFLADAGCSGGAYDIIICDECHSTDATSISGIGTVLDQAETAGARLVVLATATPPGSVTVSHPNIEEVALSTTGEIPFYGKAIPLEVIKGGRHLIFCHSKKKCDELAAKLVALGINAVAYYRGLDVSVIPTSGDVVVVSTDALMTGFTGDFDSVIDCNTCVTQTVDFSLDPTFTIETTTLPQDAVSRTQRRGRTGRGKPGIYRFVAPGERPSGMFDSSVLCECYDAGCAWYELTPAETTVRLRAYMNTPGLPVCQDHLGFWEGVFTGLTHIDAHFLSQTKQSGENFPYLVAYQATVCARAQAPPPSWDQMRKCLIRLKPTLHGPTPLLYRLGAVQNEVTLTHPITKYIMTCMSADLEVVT
Chain of Genome polyprotein (P27958 1658-1711 limits assumed): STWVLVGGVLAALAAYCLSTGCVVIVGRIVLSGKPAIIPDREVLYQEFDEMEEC

Molecule `CC[C@@H]1C[C@]1(NC(=O)[C@@H]1C[C@@H]2CN1C(=O)[C@H](C(C)(C)C)NC(=O)OCC(C)(C)CCCCc1cccc3c1CN(C3)C(=O)O2)C(=O)NS(=O)(=O)C1CC1` [Vaniprevir] yielded a Ki of 0.46 nM.

With `C=C[C@@H]1C[C@]1(NC(=O)C1C[C@@H]2CN1C(=O)[C@H](C(C)(C)C)NC(=O)OCC(C)(C)CCCCc1cccc3c1CN(C3)C(=O)O2)C(=O)NS(=O)(=O)C1CC1` (stereo partly drawn) [Dan-mcP2P4], the inhibition constant Ki was 0.22 nM.

Molecule `C=C[C@@H]1C[C@]1(NC(=O)[C@@H]1CC2CN1C(=O)[C@H](C(C)(C)C)NC(=O)O[C@@H]1C[C@H]1CCCCCc1nc3ccc(OC)cc3nc1O2)C(=O)NS(=O)(=O)C1CC1` (stereo partly drawn) [MK-5172] registered a Ki of 0.06 nM.
